From patent US7718666B2, “Pyrido [2,1-a] isoquinoline derivatives” (Hoffmann-La Roche Inc., priority 2003, dated 2010)

Molecular target: human DPP-IV (Homo sapiens, UniProt P27487)
Experiment: DPP-IV activity assay (fluorogenic / colorimetric), IC50 determination
Method: Activity of DPP-IV inhibitors are tested with natural human DPP-IV derived from a human plasma pool or with recombinant human DPP-IV. Human citrate plasma from different donors is pooled, filtered through a 0.2 micron membrane under sterile conditions and aliquots of 1 ml are shock frozen and stored at −120° C. until used. In the colorimetric DPP-IV assay 5 to 10 μl human plasma and in the fluorometric assay 1.0 μl of human plasma in a total assay volume of 100 μl is used as an enzyme source. […] Human DPP-IV is expressed and purified from the culture medium using conventional column chromatography including size exclusion and anion and cation chromatography. […] In the calorimetric DPP-IV assay 20 ng rec.-h DPP-IV and in the fluorometric assay 2 ng rec-h DPP-IV in a total assay volume of 100 μl is used as an enzyme source.
Initial rate constants are calculated by best fit linear regression.
The absorption of pNA liberated from the calorimetric substrate is detected in a Packard SpectraCount at 405 nm continuosly every 2 minutes for 30 to 120 minutes. Initial rate constants are calculated by best fit linear regression.
DPP-IV activity assays are performed in 96 well plates at 37° C. in a total assay volume of 100 μl. […]
Kinetic parameters of the enzyme reaction are calculated at least 5 different substrate concentrations and at least 5 different test compound concentrations.

human DPP-IV, sequence (P27487 31-766): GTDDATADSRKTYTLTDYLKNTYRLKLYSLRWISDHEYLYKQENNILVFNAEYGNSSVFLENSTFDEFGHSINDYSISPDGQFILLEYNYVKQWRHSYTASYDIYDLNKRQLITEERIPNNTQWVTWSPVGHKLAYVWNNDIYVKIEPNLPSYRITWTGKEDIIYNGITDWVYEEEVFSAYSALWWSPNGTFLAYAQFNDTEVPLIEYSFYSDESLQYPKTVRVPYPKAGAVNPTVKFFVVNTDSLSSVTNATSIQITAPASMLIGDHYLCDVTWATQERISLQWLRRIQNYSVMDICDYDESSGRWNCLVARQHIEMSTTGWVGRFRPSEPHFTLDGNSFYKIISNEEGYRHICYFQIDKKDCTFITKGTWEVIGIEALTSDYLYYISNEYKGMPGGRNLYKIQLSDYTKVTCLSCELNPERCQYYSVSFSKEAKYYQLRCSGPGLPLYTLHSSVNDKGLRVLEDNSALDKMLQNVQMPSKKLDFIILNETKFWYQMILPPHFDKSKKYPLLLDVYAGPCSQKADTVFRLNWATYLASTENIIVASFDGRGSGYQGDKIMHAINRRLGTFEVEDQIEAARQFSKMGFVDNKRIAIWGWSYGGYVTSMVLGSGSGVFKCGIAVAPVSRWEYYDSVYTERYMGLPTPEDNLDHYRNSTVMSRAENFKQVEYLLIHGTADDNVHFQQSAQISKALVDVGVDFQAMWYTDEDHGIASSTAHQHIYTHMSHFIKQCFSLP

| SMILES | IC50 |
| --- | --- |
| COc1cc2c(cc1OC)[C@@H]1C[C@H](N)[C@@H](n3ccc(C)c3)CN1CC2 (racemic) [Example 33, rac-9,10-Dimethoxy-3β-(3-methyl-pyrrol-1-yl)-1,3,4,6,7,11bβ-hexahydro-2H-pyrido[2,1-a]isoquinolin-2α-ylamine] | 5.4 nM |
| COc1cc2c(cc1OC)[C@@H]1C[C@H](N)[C@@H](c3cc(C)ccn3)CN1CC2 [Example 9, 9,10-Dimethoxy-3(S)-(4-methyl-pyridin-2-yl)-1,3,4,6,7,11b(S)-hexahydro-2H-pyrido[2,1a]isoquinolin-2(S)-ylamine] | 11.5 nM |
